From paper PMC12090182, “Repurposing of the RIPK1-Selective Benzo[1,4]oxazepin-4-one Scaffold for the Development of a Type III LIMK1/2 Inhibitor” (ACS Chemical Biology, 2025)
Where two headings read alike, the source gives them in different places.

Assays:
[1] = molecular target: CSNK2A2 (Homo sapiens, UniProt P19784); assay: DSF selectivity screening; assay type: binding; details: 10 μM compound
Experimental: The assay was performed as previously described.[29],[35] Briefly, recombinant protein kinase domains at a concentration of 2 μM were mixed with a 10 μM compound in a buffer containing 20 mM HEPES, pH 7.5, and 500 mM NaCl. SYPRO Orange (5000×, Invitrogen) was added as a fluorescence probe (1 μL per mL). Subsequently, temperature-dependent protein unfolding profiles were measured using a QuantStudio 5 real-time PCR machine (Thermo Fisher). Excitation and emission filters were set to 465 and 590 nm, respectively. The temperature was raised with a step rate of 3 °C per minute. Data points were analyzed with internal software (Thermal Shift Software version 1.4, Thermo Fisher) using the Boltzmann equation to determine the inflection point of the transition curve (Table S4).

[2] = test system: HEK293T cells; assay type: cell-based
Outline: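 HEK293T and U2OS cells (DMEM) and MRC-9 fibroblasts (EMEM) exposed to compounds at 1 and 10 μM. Live-cell confocal imaging of cell shape and fluorescence before and at 12, 24 and 48 h. Normalized to 0.1% DMSO; biological duplicates with SEM.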

[3] = 1 µM, 0 h, HEK293T, replicate 2
[4] = 1 µM, 12 h, HEK293T, replicate 2
[5] = 1 µM, 24 h, HEK293T, replicate 2
[6] = 1 µM, 48 h, HEK293T, replicate 1
[7] = 1 µM, 48 h, HEK293T, replicate 2
[8] = 10 µM, 0 h, HEK293T, replicate 2
[9] = 10 µM, 12 h, HEK293T, replicate 2
[10] = 10 µM, 24 h, HEK293T, replicate 2
[11] = 10 µM, 48 h, HEK293T, replicate 2
[12] = HEK293T, 1 µM, 0 h after treatment
[13] = HEK293T, 1 µM, 12 h after treatment
[14] = HEK293T, 1 µM, 24 h after treatment
[15] = HEK293T, 10 µM, 0 h after treatment
[16] = HEK293T, 10 µM, 12 h after treatment
[17] = HEK293T, 10 µM, 24 h after treatment
[18] = HEK293T, 10 µM, 48 h after treatment

Sequence of CSNK2A2 (P19784 1-334): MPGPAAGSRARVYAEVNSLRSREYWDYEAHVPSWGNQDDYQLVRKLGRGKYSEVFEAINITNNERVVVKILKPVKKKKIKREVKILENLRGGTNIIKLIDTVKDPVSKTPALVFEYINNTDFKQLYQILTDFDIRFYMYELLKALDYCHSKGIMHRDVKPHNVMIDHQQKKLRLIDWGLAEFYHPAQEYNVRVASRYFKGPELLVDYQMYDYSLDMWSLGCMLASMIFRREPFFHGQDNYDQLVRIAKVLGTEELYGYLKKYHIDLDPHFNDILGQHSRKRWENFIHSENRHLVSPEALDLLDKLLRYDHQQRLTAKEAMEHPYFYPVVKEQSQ

CN1C(=O)[C@@H](N2CCc3c(nn(Cc4ccccc4)c3C(N)=O)C2=O)COc2cc(Cl)ccc21 [Compound 10, (S)-2-benzyl-6-(8-chloro-5-methyl-4-oxo-2,3,4,5-tetrahydrobenzo[b][1,4]oxazepin-3-yl)-7-oxo-4,5,6,7-tetrahydro-2H-pyrazolo[3,4-c]pyridine-3-carboxamide]
ΔTm at 10 µM [1]: 2.3 °C
Cell count normalized to cells treated with DMSO control [2, 3]: 0.9791
Cell count per well [2, 3]: 224
Population Fragmented Nuclei (%) [2, 3]: 4.50%
Population Healthy Nuclei (%) [2, 3]: 67.00%
Population Pyknosed Nuclei (%) [2, 3]: 28.50%
Population apoptotic cell (%) [2, 3]: 66.67%
Population cell that influence microtubule strucutre (%) [2, 3]: 23.88%
Population with increased mitochondrial mass (%) [2, 3]: 83.58%
Population with membrane disruption (%) [2, 3]: 0.00%
Cell count normalized to cells treated with DMSO control [2, 4]: 1.07
Cell count per well [2, 4]: 375
Population Fragmented Nuclei (%) [2, 4]: 6.44%
Population Healthy Nuclei (%) [2, 4]: 80.67%
Population Pyknosed Nuclei (%) [2, 4]: 12.89%
Population apoptotic cell (%) [2, 4]: 23.91%
Population cell that influence microtubule strucutre (%) [2, 4]: 20.49%
Population with increased mitochondrial mass (%) [2, 4]: 45.83%
Population with membrane disruption (%) [2, 4]: 0.69%
Cell count normalized to cells treated with DMSO control [2, 5]: 1.152
Cell count per well [2, 5]: 520
Population Fragmented Nuclei (%) [2, 5]: 9.33%
Population Healthy Nuclei (%) [2, 5]: 82.94%
Population Pyknosed Nuclei (%) [2, 5]: 7.74%
Population apoptotic cell (%) [2, 5]: 43.59%
Population cell that influence microtubule strucutre (%) [2, 5]: 13.64%
Population with increased mitochondrial mass (%) [2, 5]: 27.75%
Population with membrane disruption (%) [2, 5]: 0.24%
Cell count normalized to cells treated with DMSO control [2, 6]: 1.025
Cell count per well [2, 6]: 1037
Population Fragmented Nuclei (%) [2, 6]: 16.00%
Population Healthy Nuclei (%) [2, 6]: 79.80%
Population Pyknosed Nuclei (%) [2, 6]: 4.20%
Population apoptotic cell (%) [2, 6]: 6.98%
Population cell that influence microtubule strucutre (%) [2, 6]: 10.88%
Population with increased mitochondrial mass (%) [2, 6]: 12.47%
Population with membrane disruption (%) [2, 6]: 2.32%
Cell count normalized to cells treated with DMSO control [2, 7]: 1.189
Cell count per well [2, 7]: 812
Population Fragmented Nuclei (%) [2, 7]: 18.11%
Population Healthy Nuclei (%) [2, 7]: 75.56%
Population Pyknosed Nuclei (%) [2, 7]: 6.33%
Population apoptotic cell (%) [2, 7]: 17.65%
Population cell that influence microtubule strucutre (%) [2, 7]: 11.82%
Population with increased mitochondrial mass (%) [2, 7]: 11.00%
Population with membrane disruption (%) [2, 7]: 1.97%
cytotoxicity ([2]; 1 μM, HEK293T): no cytotoxicity
Cell count normalized to cells treated with DMSO control [2, 8]: 0.8086
Cell count per well [2, 8]: 185
Population Fragmented Nuclei (%) [2, 8]: 2.99%
Population Healthy Nuclei (%) [2, 8]: 66.47%
Population Pyknosed Nuclei (%) [2, 8]: 30.54%
Population apoptotic cell (%) [2, 8]: 64.71%
Population cell that influence microtubule strucutre (%) [2, 8]: 27.03%
Population with increased mitochondrial mass (%) [2, 8]: 85.59%
Population with membrane disruption (%) [2, 8]: 0.00%
Cell count normalized to cells treated with DMSO control [2, 9]: 0.8449
Cell count per well [2, 9]: 296
Population Fragmented Nuclei (%) [2, 9]: 7.69%
Population Healthy Nuclei (%) [2, 9]: 76.54%
Population Pyknosed Nuclei (%) [2, 9]: 15.77%
Population apoptotic cell (%) [2, 9]: 63.41%
Population cell that influence microtubule strucutre (%) [2, 9]: 38.69%
Population with increased mitochondrial mass (%) [2, 9]: 77.89%
Population with membrane disruption (%) [2, 9]: 0.00%
Cell count normalized to cells treated with DMSO control [2, 10]: 0.8682
Cell count per well [2, 10]: 392
Population Fragmented Nuclei (%) [2, 10]: 11.70%
Population Healthy Nuclei (%) [2, 10]: 77.99%
Population Pyknosed Nuclei (%) [2, 10]: 10.31%
Population apoptotic cell (%) [2, 10]: 56.76%
Population cell that influence microtubule strucutre (%) [2, 10]: 28.21%
Population with increased mitochondrial mass (%) [2, 10]: 65.71%
Population with membrane disruption (%) [2, 10]: 0.00%
Cell count normalized to cells treated with DMSO control [2, 11]: 0.7573
Cell count per well [2, 11]: 517
Population Fragmented Nuclei (%) [2, 11]: 16.37%
Population Healthy Nuclei (%) [2, 11]: 77.05%
Population Pyknosed Nuclei (%) [2, 11]: 6.59%
Population apoptotic cell (%) [2, 11]: 39.39%
Population cell that influence microtubule strucutre (%) [2, 11]: 19.17%
Population with increased mitochondrial mass (%) [2, 11]: 40.93%
Population with membrane disruption (%) [2, 11]: 0.00%
toxicity ([2]; 10 μM, within the 48 h time frame, b30 names HEK293T (apoptotic cell population)): slight increase in toxicity
impact on tubulin, mitochondrial mass, and cellular permeability in healthy cells ([2]; HEK293T, 1 μM (Figure 6)): comparable to that of the 0.1% DMSO control
Cell count normalized to cells treated with DMSO control [2, 12]: 1.066
Cell count per well [2, 12]: 318
Population Fragmented Nuclei (%) [2, 12]: 7.28%
Population Healthy Nuclei (%) [2, 12]: 48.28%
Population Pyknosed Nuclei (%) [2, 12]: 44.44%
Population apoptotic cell (%) [2, 12]: 40.52%
Population cell that influence microtubule strucutre (%) [2, 12]: 21.43%
Population with increased mitochondrial mass (%) [2, 12]: 63.49%
Population with membrane disruption (%) [2, 12]: 0.00%
Cell count normalized to cells treated with DMSO control [2, 13]: 1.032
Cell count per well [2, 13]: 470
Population Fragmented Nuclei (%) [2, 13]: 6.59%
Population Healthy Nuclei (%) [2, 13]: 81.41%
Population Pyknosed Nuclei (%) [2, 13]: 12.00%
Population apoptotic cell (%) [2, 13]: 25.49%
Population cell that influence microtubule strucutre (%) [2, 13]: 28.03%
Population with increased mitochondrial mass (%) [2, 13]: 37.86%
Population with membrane disruption (%) [2, 13]: 0.58%
Cell count normalized to cells treated with DMSO control [2, 14]: 1.043
Cell count per well [2, 14]: 633
Population Fragmented Nuclei (%) [2, 14]: 13.01%
Population Healthy Nuclei (%) [2, 14]: 77.59%
Population Pyknosed Nuclei (%) [2, 14]: 9.39%
Population apoptotic cell (%) [2, 14]: 29.82%
Population cell that influence microtubule strucutre (%) [2, 14]: 18.05%
Population with increased mitochondrial mass (%) [2, 14]: 21.02%
Population with membrane disruption (%) [2, 14]: 0.85%
Cell count normalized to cells treated with DMSO control [2, 15]: 0.8779
Cell count per well [2, 15]: 262
Population Fragmented Nuclei (%) [2, 15]: 12.05%
Population Healthy Nuclei (%) [2, 15]: 39.73%
Population Pyknosed Nuclei (%) [2, 15]: 48.21%
Population apoptotic cell (%) [2, 15]: 50.00%
Population cell that influence microtubule strucutre (%) [2, 15]: 14.61%
Population with increased mitochondrial mass (%) [2, 15]: 59.55%
Population with membrane disruption (%) [2, 15]: 0.00%
Cell count normalized to cells treated with DMSO control [2, 16]: 0.8806
Cell count per well [2, 16]: 401
Population Fragmented Nuclei (%) [2, 16]: 9.68%
Population Healthy Nuclei (%) [2, 16]: 77.15%
Population Pyknosed Nuclei (%) [2, 16]: 13.17%
Population apoptotic cell (%) [2, 16]: 46.94%
Population cell that influence microtubule strucutre (%) [2, 16]: 42.51%
Population with increased mitochondrial mass (%) [2, 16]: 57.84%
Population with membrane disruption (%) [2, 16]: 0.00%
Cell count normalized to cells treated with DMSO control [2, 17]: 0.8057
Cell count per well [2, 17]: 489
Population Fragmented Nuclei (%) [2, 17]: 10.83%
Population Healthy Nuclei (%) [2, 17]: 78.34%
Population Pyknosed Nuclei (%) [2, 17]: 10.83%
Population apoptotic cell (%) [2, 17]: 43.14%
Population cell that influence microtubule strucutre (%) [2, 17]: 28.46%
Population with increased mitochondrial mass (%) [2, 17]: 48.51%
Population with membrane disruption (%) [2, 17]: 0.27%
Cell count normalized to cells treated with DMSO control [2, 18]: 0.8197
Cell count per well [2, 18]: 829
Population Fragmented Nuclei (%) [2, 18]: 23.14%
Population Healthy Nuclei (%) [2, 18]: 71.74%
Population Pyknosed Nuclei (%) [2, 18]: 5.12%
Population apoptotic cell (%) [2, 18]: 33.33%
Population cell that influence microtubule strucutre (%) [2, 18]: 14.26%
Population with increased mitochondrial mass (%) [2, 18]: 26.32%
Population with membrane disruption (%) [2, 18]: 0.51%
